The text below walks through data of patent publication US10071957B2, “N-substituted benzamides and methods of use thereof” (GENENTECH, INC., priority 2012, dated 2018).

In one experiment the target is hNaV1.5 (Homo sapiens (Human), UniProt Q14524). Kind of experiment: Patch voltage clamp electrophysiology, inactivated state block of NaV1.5 in HEK-293 cells. In kind it is cell-based. The settings on record: HEK cells with β1 subunit, read-out: hNaV 1.5 IC50. The protocol:
(§1) Patch voltage clamp electrophysiology allows for the direct measurement and quantification of block of voltage-gated sodium channels (NaV's), and allows the determination of the time- and voltage-dependence of block which has been interpreted as differential binding to the resting, open, and inactivated states of the sodium channel (Hille, B., Journal of General Physiology (1977), 69: 497-515).
(§2) The following patch voltage clamp electrophysiology studies were performed on representative compounds of the invention using human embryonic kidney cells (HEK), permanently transfected with an expression vector containing the full-length cDNA coding for the desired human sodium channel α-subunit, grown in culture media containing 10% FBS, 1% PSG, and 0.5 mg/mL G418 at 37° C. with 5% CO2. […] NaV1.7 and NaV1.5 cDNAs (NM_002977 and AC137587; SCN5A, respectively) were stably expressed in HEK-293 cells. The β1 subunit was coexpressed in both the NaV1.7 and NaV1.5 cell lines.
(§3) Sodium currents were measured using the patch clamp technique in the whole-cell configuration using either a PatchXpress automated voltage clamp or manually using an Axopatch 200B (Axon Instruments) or Model 2400 (A-M systems) amplifier. The manual voltage clamp protocol was as follows:
(§4) Borosilicate glass micropipettes were fire-polished to a tip diameter yielding a resistance of 2-4 Mohms in the working solutions. The pipette was filled with a solution comprised of: 5 mM NaCl, 10 mM CsCl, 120 mM CsF, 0.1 mM CaCl2, 2 mM MgCl2, 10 mM HEPES, 10 mM EGTA; and adjusted to pH 7.2 with CsOH. The external solution had the following composition: 140 mM NaCl, 5 mM KCl, 2 mM CaCl2, 1 mM MgCl2, 10 mM HEPES; and adjusted to pH 7.4 with NaOH. In some studies, the external sodium was reduced by equimolar replacement with choline. Osmolarity in the CsF internal and NaCl external solutions was adjusted to 300 mOsm/kg and 310 mOsm/kg with glucose, respectively. All recordings were performed at ambient temperature in a bath chamber with a volume of 150 μL. Control sodium currents were measured in 0.5% DMSO. Controls and representative compounds of the invention were applied to the recording chamber through a 4-pinch or 8-pinch valve bath perfusion system manufactured by ALA Scientific Instruments.
(§5) Currents were recorded at 40 kHz sampling frequency, filtered at […], and stored using a Digidata-1322A analogue/digital interface with the pClamp software (Axon Instruments). Series resistance compensation was applied (60-80%). […] All statistics in this study are given as mean±SD.
The membrane potential was maintained at a voltage where inactivation of the channel is complete (which was −60 mV for both NaV1.7 and NaV1.5). The voltage is then stepped back to a very negative (Vhold=[…]) voltage for 20 ms and then a test pulse is applied to quantify the compound block. The 20 ms brief repolarization was long enough for compound-free channels to completely recover from fast inactivation, but the compound-bound channels recovered more slowly such that negligible recovery could occur during this interval. The percent decrease in sodium current following wash-on of compound was taken as the percent block of sodium channels.

Experiment [1] has as its target T1, hNaV1.7 (Homo sapiens (Human), UniProt Q15858). As to the kind of experiment: Competitive binding of tritiated compound to membranes from cells expressing hNav1.7 and the β1 subunit. Conditions: 100 pM [3H]compound, 18 h, room temperature; read-out: NaV1.7 395 Membrane Binding IC50. The procedure, abridged: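 Membranes from cells expressing hNav1.7 with β1 subunit incubated 18 h at room temperature with 100 pM tritiated reference compound and test compound in 100 mM NaCl, 20 mM Tris HCl, pH 7.4. Nonspecific binding defined with 1 μM unlabelled compound; bound radioactivity counted after GF/C filtration. IC50 from 4-parameter logistic fit.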

Experiment [2] concerns the target T1, hNaV1.7. Kind of experiment: Patch voltage clamp electrophysiology, inactivated state block of NaV1.7 in HEK-293 cells. Conditions: HEK cells with β1 subunit, read-out: hNaV 1.7 IC50. In kind it is cell-based. The protocol:
as §1, §2, §3
as §4, with “The” for “Borosilicate glass micropipettes were fire-polished to a tip diameter yielding a resistance of 2-4 Mohms in the working solutions. The”
as §5
The membrane potential was maintained at a voltage where inactivation of the channel is complete (which was −60 mV for both NaV1.7 and NaV1.5). […] The percent decrease in sodium current following wash-on of compound was taken as the percent block of sodium channels.

The structures appear in SMILES notation. pIC50: −log10 of the molar value.

T1 sequence (Q15858 whole entry, looked up): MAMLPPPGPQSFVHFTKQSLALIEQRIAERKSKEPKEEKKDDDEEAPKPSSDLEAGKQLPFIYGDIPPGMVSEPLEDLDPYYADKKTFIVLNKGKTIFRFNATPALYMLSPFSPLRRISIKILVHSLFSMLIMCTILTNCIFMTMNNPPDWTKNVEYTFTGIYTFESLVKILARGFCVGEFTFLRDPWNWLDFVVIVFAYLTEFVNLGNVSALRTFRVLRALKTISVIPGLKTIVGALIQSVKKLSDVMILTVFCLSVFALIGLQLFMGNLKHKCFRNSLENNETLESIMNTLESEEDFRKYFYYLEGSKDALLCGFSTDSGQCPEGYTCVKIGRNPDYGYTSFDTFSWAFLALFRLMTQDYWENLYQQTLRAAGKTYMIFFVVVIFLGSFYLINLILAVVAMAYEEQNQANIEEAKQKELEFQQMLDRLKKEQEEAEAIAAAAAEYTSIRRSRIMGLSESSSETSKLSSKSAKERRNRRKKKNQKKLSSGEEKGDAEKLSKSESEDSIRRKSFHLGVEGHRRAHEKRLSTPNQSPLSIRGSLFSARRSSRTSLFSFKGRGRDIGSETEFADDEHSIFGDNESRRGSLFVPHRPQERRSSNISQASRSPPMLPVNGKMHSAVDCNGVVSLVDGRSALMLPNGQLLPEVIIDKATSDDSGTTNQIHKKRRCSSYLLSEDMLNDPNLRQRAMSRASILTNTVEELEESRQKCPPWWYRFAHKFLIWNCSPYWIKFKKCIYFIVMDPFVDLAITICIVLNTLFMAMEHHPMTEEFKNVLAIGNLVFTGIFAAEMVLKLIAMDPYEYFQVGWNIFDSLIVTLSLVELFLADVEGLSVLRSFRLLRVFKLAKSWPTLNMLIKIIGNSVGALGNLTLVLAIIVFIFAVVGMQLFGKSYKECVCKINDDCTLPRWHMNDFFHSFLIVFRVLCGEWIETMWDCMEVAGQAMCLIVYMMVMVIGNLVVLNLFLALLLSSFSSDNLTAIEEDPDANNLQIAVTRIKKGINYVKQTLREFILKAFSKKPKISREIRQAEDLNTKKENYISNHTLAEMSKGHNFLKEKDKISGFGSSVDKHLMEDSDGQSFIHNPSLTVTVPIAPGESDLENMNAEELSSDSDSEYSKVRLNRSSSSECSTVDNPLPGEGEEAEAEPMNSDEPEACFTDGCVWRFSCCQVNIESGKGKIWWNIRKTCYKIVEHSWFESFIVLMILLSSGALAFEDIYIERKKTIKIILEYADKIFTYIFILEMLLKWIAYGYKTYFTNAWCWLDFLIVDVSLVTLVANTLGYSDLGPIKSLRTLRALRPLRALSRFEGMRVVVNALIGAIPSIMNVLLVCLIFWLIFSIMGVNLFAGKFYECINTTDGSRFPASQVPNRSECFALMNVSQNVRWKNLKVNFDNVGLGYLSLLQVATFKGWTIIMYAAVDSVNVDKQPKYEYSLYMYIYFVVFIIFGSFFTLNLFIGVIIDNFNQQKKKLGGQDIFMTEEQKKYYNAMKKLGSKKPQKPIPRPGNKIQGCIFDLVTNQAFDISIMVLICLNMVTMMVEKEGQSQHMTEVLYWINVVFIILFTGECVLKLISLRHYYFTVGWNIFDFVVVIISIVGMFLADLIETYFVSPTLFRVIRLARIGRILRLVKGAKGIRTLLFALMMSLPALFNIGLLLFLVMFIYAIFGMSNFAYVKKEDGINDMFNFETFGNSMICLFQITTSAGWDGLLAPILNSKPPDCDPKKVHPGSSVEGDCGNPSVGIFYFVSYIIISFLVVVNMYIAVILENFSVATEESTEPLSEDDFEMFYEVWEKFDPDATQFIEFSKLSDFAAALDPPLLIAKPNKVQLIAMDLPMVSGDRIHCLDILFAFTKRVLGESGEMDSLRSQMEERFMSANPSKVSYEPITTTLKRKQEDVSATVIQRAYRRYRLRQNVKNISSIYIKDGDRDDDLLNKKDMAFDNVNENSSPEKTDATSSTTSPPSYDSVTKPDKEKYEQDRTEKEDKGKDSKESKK
T1 sequence (Q07699 whole entry partner, looked up): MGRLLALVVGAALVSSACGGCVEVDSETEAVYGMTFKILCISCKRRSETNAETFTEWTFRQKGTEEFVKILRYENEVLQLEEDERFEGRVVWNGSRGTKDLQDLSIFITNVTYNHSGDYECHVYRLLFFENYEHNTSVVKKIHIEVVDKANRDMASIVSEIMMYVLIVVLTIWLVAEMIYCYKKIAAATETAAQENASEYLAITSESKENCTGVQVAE
Chain of hNaV1.5 (Q14524 whole entry): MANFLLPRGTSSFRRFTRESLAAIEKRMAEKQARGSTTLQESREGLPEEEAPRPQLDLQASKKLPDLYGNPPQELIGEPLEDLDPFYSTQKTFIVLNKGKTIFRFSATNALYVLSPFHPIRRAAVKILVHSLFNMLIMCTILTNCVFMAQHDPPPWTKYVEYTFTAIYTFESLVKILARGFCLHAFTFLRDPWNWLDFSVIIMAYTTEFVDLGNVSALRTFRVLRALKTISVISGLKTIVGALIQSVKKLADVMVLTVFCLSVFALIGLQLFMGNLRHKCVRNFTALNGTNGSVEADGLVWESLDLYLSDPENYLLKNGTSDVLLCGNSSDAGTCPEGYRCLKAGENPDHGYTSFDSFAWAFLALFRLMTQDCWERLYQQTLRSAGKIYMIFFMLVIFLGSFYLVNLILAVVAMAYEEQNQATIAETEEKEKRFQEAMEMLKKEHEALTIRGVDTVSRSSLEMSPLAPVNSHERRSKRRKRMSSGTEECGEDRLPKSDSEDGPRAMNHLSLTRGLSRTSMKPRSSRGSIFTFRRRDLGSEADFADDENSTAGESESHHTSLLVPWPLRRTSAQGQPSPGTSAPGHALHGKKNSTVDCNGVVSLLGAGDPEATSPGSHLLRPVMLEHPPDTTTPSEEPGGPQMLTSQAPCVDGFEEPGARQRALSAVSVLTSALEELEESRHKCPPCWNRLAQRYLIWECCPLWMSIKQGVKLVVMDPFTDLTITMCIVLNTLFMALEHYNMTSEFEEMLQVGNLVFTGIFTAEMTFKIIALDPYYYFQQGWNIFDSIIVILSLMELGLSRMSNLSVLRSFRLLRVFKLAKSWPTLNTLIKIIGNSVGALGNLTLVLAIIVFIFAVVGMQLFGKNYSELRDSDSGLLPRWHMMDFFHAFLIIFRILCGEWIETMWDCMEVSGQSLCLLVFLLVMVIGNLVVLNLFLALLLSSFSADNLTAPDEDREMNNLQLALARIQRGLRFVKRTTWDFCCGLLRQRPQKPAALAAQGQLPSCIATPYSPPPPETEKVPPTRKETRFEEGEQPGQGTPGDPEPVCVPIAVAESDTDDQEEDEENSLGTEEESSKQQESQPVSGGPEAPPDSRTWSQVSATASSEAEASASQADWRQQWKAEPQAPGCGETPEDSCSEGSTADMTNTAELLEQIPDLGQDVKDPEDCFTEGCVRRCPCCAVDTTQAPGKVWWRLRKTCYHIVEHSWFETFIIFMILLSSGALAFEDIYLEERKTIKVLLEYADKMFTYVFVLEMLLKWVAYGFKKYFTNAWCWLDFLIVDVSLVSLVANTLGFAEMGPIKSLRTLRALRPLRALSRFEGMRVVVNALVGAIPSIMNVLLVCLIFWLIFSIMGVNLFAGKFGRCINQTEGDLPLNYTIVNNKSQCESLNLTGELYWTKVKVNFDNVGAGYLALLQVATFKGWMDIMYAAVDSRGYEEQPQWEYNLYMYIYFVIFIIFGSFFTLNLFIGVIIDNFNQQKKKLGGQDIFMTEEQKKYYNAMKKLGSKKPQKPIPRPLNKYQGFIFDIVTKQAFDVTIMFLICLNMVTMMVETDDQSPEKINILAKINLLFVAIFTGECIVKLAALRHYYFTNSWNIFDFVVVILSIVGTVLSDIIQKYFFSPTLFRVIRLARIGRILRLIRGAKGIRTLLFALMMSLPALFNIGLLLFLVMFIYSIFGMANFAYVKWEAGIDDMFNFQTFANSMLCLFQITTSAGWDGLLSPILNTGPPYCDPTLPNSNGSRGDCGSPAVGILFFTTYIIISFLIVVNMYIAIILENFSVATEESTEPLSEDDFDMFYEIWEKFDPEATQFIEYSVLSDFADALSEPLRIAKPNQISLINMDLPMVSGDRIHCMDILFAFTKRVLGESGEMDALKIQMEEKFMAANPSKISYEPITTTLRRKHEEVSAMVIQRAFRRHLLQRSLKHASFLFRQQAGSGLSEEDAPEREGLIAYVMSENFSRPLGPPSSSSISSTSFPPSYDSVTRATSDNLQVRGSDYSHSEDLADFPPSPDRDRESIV

Broadly, the pIC50 is −log10 of the IC50, conventionally taken in molar units. In the case of `CC(C)COc1ncc(Oc2cc(F)c(C(=O)NS(=O)(=O)N(C)C)cc2Cl)cc1Cl` [Preparation 3, 5-chloro-4-((5-chloro-6-isobutoxypyridin-3-yl)oxy)-N-(N,N-dimethylsulfamoyl)-2-fluorobenzamide], the pIC50 at hNaV1.5 is 5.66; on hNaV1.7 [1], 7.61; at hNaV1.7 [2], 7.96.

Turning to `CNS(=O)(=O)NC(=O)c1cc(Cl)c(Oc2cnc(OCC(C)C)c(Cl)c2)cc1F` [Preparation 6, 5-chloro-4-((5-chloro-6-isobutoxypyridin-3-yl)oxy)-2-fluoro-N-(N-methylsulfamoyl) benzamide], the pIC50 on hNaV1.5 is 5.14; at hNaV1.7 [1], 8.07; on hNaV1.7 [2], 8.22.

For `CN(C)S(=O)(=O)NC(=O)c1cc(Cl)c(Oc2cnc(OCC(F)(F)C(F)F)c(Cl)c2)cc1F` [Preparation 30, 5-chloro-4-(5-chloro-6-(2,2,3,3-tetrafluoro-propoxy)pyridin-3-yloxy)-N-(N,N-dimethylsulfamoyl)-2-fluorobenzamide], the values for the pIC50 on hNaV1.7 [1] and on hNaV1.7 [2] were 7.32 and 7.47, respectively.

As to `CN(C)S(=O)(=O)NC(=O)c1cc(Cl)c(COc2cnc(OCC(F)(F)C(F)F)c(Cl)c2)cc1F` [Preparation 76], the results for the pIC50 on hNaV1.7 [1] and on hNaV1.7 [2] were 6.66 and 7.46, respectively.

Take `CNS(=O)(=O)NC(=O)c1cc(Cl)c(COc2ccc(Cl)c(Cl)c2)cc1F` [Preparation 80]: the pIC50 on hNaV1.7 [1] is 7.55; on hNaV1.7 [2], 7.94.

Consider `CC(C)Oc1ncc(OCc2cc(F)c(C(=O)NS(=O)(=O)N3CCC3)cc2Cl)cc1Cl` [Preparation 82], for which the pIC50 at hNaV1.7 [1] is 7.37; at hNaV1.7 [2], 8.21.

Turning to `CC(C)Oc1ncc(Oc2ccc(C(=O)NS(=O)(=O)N3CCC3)cc2C2CC2)cc1Cl` [Preparation 84], the figures for the pIC50 on hNaV1.5, at hNaV1.7 [1] and on hNaV1.7 [2] were 5.46, 7.60 and 8.08, respectively.

Regarding `COc1ncccc1-c1cc(C(=O)NS(=O)(=O)N2CCC2)ccc1Oc1cnc(OC(C)C)c(Cl)c1` [Preparation 86], the pIC50 at hNaV1.5 is < 5.00; at hNaV1.7 [1], 7.96; on hNaV1.7 [2], 7.66.

With `CC(C)Oc1ncc(Oc2cc(F)c(C(=O)NS(=O)(=O)N3CCC3)cc2C2CC2)cc1Cl` [Preparation 87], the pIC50 at hNaV1.5 was 5.92; on hNaV1.7 [1], 8.22; at hNaV1.7 [2], 8.68.

As to `C=Cc1cc(C(=O)NS(=O)(=O)N2CCC2)c(F)cc1Oc1cnc(OC(C)C)c(Cl)c1` [Preparation 91], the pIC50 is 5.59 on hNaV1.5, 8.30 at hNaV1.7 [1] and 8.17 at hNaV1.7 [2].

Consider `C=Cc1cc(C(=O)NS(=O)(=O)N2CCC2)c(F)cc1Oc1cnc(OCC(F)(F)F)c(Cl)c1` [Preparation 92], for which the pIC50 on hNaV1.7 [1] was 7.96; on hNaV1.7 [2] it was 8.37.
